Holding throughout (assay type): biochemical
Test [1] addresses T1, human JAK3 (a.a. 781-1124) (Homo sapiens, UniProt P52333).
T1 construct: JAK3 (a.a. 781-1124); His tag (N); made in house; host or cells: insect cells (baculovirus)
Briefly: In vitro JAK kinase assay (HTRF, phosphorylation of a biotinylated peptide), JAK3. The method, boiled down:
(§1)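 Kinase reactions ran at room temperature for 1 h with ATP matched per isoform (JAK1 90 μM, JAK2 30 μM, JAK3 3 μM). After an EDTA stop, the phosphorylated biotin-peptide was read by HTRF using Eu-Py20 and SA-APC after 40 min binding.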
For orientation: In TR-FRET formats the signal depends on donor and acceptor labels being close together.

The target of test [2] is T2, human JAK1 (a.a. 837-1142) (Homo sapiens, UniProt P23458).
T2 construct: human JAK1 (a.a. 837-1142); His tag (N); made in house; host or cells: insect cells (baculovirus)
T2 sequence (P23458 849-1154): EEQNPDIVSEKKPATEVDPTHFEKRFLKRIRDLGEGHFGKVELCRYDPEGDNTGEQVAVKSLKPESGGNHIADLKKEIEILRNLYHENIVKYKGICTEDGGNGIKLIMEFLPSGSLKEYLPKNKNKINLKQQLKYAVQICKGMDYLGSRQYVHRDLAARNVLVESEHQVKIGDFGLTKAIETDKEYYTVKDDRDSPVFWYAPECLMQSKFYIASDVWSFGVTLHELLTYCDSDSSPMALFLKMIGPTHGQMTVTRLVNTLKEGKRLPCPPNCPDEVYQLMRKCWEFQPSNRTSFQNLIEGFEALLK
Put plainly: In vitro JAK kinase assay (HTRF, phosphorylation of a biotinylated peptide), JAK1. Conditions: read-out: JAK1 IC50. The essentials: as §1

For the next test, the target named is TYK2 (Homo sapiens, UniProt P29597). Put plainly: TYK2 kinase inhibition (Table A1).
TYK2, sequence (P29597 whole entry): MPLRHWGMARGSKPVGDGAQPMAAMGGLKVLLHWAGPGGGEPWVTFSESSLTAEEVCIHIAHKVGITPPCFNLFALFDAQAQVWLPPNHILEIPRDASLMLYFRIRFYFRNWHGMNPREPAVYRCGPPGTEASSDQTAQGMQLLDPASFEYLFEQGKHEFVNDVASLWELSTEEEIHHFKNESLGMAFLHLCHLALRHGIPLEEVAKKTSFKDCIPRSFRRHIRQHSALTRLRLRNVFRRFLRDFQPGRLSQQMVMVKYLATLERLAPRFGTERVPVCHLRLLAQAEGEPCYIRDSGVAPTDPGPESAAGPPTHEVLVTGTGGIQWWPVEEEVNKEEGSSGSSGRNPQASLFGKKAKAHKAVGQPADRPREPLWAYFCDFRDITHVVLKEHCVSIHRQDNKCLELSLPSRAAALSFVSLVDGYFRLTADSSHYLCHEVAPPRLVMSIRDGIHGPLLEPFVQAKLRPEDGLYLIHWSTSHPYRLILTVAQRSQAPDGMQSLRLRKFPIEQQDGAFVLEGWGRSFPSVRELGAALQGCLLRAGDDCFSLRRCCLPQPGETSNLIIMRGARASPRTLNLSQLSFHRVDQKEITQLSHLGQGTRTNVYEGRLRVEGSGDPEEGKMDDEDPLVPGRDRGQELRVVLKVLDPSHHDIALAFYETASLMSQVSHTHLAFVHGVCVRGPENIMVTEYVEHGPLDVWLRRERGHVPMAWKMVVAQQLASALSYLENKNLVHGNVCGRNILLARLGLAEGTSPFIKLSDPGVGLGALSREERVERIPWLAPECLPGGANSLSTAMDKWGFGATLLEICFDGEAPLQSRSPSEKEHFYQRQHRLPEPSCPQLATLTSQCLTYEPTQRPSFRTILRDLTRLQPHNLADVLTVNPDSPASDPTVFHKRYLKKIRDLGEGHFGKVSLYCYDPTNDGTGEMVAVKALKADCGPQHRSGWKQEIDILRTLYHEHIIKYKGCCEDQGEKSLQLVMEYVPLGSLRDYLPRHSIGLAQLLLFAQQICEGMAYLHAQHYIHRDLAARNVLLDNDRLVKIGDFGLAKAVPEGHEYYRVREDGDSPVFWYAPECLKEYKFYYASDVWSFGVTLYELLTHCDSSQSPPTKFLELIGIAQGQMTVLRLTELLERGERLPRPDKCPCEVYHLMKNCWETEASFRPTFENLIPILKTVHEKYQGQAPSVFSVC
In test [3] the target is T3, human JAK2 (a.a. 828-1132) (Homo sapiens, UniProt O60674).
T3 construct: JAK2 (a.a. 828-1132); His tag (N); made in house; host or cells: insect cells (baculovirus)
T3 sequence (O60674 828-1132): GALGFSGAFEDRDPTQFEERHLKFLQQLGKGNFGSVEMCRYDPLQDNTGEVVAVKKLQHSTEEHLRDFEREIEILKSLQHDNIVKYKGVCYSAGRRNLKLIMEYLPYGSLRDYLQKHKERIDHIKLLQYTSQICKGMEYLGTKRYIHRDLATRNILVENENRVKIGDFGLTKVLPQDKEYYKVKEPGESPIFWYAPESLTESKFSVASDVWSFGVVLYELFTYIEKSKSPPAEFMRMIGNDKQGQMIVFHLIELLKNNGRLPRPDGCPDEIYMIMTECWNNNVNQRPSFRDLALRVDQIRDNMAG
Put plainly: In vitro JAK kinase assay (HTRF, phosphorylation of a biotinylated peptide), JAK2. The method, boiled down: as §1

Where a name gives a salt, the structure may show the parent alone. Read-outs that look alike come from different tables or passages of the source.

T1 sequence (P52333 781-1124): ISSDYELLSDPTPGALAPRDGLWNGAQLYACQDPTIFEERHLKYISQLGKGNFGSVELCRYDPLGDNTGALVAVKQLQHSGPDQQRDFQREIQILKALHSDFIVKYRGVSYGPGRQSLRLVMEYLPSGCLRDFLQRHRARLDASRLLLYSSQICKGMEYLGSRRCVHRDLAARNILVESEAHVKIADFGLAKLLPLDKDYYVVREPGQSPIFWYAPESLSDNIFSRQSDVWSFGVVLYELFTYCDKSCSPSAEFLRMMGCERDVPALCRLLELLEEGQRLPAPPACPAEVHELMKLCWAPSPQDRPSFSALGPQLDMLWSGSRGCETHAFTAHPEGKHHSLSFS

In the case of `CC(=O)N1CCN(C(=O)COc2ccc3cc2CCc2cncc(c2)Nc2ncc(Cl)c(n2)N3)CC1` [Example D252, 12-[2-(4-Acetylpiperazin-1-yl)-2-oxoethoxy]-6-chloro-2,4,8,18,22-pentaazatetracyclo[14.3.1.1(3,7).1(9,13)]docosa-1(20),3(22),4,6,9(21),10,12,16,18-nonaene bis(trifluoroacetate)], the IC50 (as a rule, the concentration at which inhibition is half-maximal) in test [1] (Table D1) was > 400 nM; in test [2] (Table D1), 65 nM; on TYK2 (Table D1), > 400 nM; in test [3] (Table D1) it was 244 nM.

With `O=C(COc1ccc2cc1CCc1cncc(c1)Nc1ncc(Cl)c(n1)N2)N1CCN(c2cccc(Cl)n2)CC1` [Example D240, 6-Chloro-12-{2-[4-(6-chloropyridin-2-yl)piperazin-1-yl]-2-oxoethoxy}-2,4,8,18,22-pentaazatetracyclo[14.3.1.1(3,7).1(9,13)]docosa-1(20),3(22),4,6,9(21),10,12,16,18-nonaene tris(trifluoroacetate)], the 50% inhibitory concentration (IC50) in test [1] (Table D1) was > 400 nM; in test [2] (Table D1), 255 nM; against TYK2 (Table D1), > 400 nM; in test [3] (Table D1), > 400 nM.

In the case of `O=C(COc1ccc2cc1CCc1cncc(c1)Nc1ncc(Cl)c(n1)N2)N1CCN(S(=O)(=O)c2ccccc2F)CC1` [Example D253, 6-Chloro-12-(2-{4-[(2-fluorophenyl)sulfonyl]piperazin-1-yl}-2-oxoethoxy)-2,4,8,18,22-pentaazatetracyclo[14.3.1.1(3,7).1(9,13)]docosa-1(20),3(22),4,6,9(21),10,12,16,18-nonaene bis(trifluoroacetate)], the IC50 is > 400 nM in test [1] (Table D1), 35 nM in test [2] (Table D1), > 400 nM against TYK2 (Table D1) and 67 nM in test [3] (Table D1).

For `NC1CCN(c2ccc3cc2CCc2cccc(c2)Nc2ncc(Cl)c(n2)N3)C1` (centres unmarked) [Example D88, 1-[6-Chloro-2,4,8,22-tetraazatetracyclo[14.3.1.1(3,7).1(9,13)]docosa-1(20),3(22),4,6,9(21),10,12,16,18-nonaen-12-yl]pyrrolidin-3-amine tris(trifluoroacetate)], the IC50 was determined as 15 nM in test [1] (Table D1), 19 nM in test [2] (Table D1), 14 nM on TYK2 (Table D1) and 7.7 nM in test [3] (Table D1).

Turning to `CC(=O)N1CCC(Nc2ccc3cc2CCc2cncc(c2)Nc2ncc(Cl)c(n2)N3)CC1` [Example D158, N-(1-Acetylpiperidin-4-yl)-6-chloro-2,4,8,18,22-pentaazatetracyclo[14.3.1.1(3,7).1(9,13)]docosa-1(20),3(22),4,6,9(21),10,12,16,18-nonaen-12-amine tris(trifluoroacetate)], the concentration for half-maximal inhibition (IC50) in test [1] (Table D1) was > 400 nM; in test [2] (Table D1), 150 nM; against TYK2 (Table D1), > 400 nM; in test [3] (Table D1) it was > 400 nM.

With `O=C(NCc1ccco1)N1CCC(CCOc2ccc3cc2CCc2cncc(c2)Nc2ncc(Cl)c(n2)N3)CC1` [Example D165, 4-(2-{[6-Chloro-2,4,8,18,22-pentaazatetracyclo[14.3.1.1(3,7).1(9,13)]docosa-1(20),3(22),4,6,9(21),10,12,16,18-nonaen-12-yl]oxy}ethyl)-N-(2-furylmethyl)piperidine-1-carboxamide bis(trifluoroacetate)], the IC50 in test [1] (Table D1) is > 400 nM; in test [2] (Table D1) it was 52 nM; on TYK2 (Table D1), > 400 nM; in test [3] (Table D1), 208 nM.

Turning to `Cc1nc(S(=O)(=O)Nc2ccc3cc2CCc2cccc(c2)Nc2ncc(Cl)c(n2)N3)cn1C` [Example B151, N-[6-Chloro-2,4,8,22-tetraazatetracyclo[14.3.1.1(3,7).1(9,13)]docosa-1(20),3(22),4,6,9(21),10,12,16,18-nonaen-12-yl]-1,2-dimethyl-1H-imidazole-4-sulfonamide bis(trifluoroacetate)], the IC50 in test [1] (Table B1) was 36 nM; in test [2] (Table B1), 2.9 nM; on TYK2 (Table B1), 1.4 nM; in test [3] (Table B1), 1.2 nM.

For the compound `O=C(COc1ccc2cc1CCc1cncc(c1)Nc1ncc(Cl)c(n1)N2)N1CCN(C(=O)Nc2ccccc2)CC1` [Example D264, 4-({[6-Chloro-2,4,8,18,22-pentaazatetracyclo[14.3.1.1(3,7).1(9,13)]docosa-1(20),3(22),4,6,9(21),10,12,16,18-nonaen-12-yl]oxy}acetyl)-N-phenylpiperazine-1-carboxamide bis(trifluoroacetate)], the IC50 in test [1] (Table D1) was > 400 nM; in test [2] (Table D1) it was 6.1 nM; at TYK2 (Table D1) it was 300 nM; in test [3] (Table D1), 22 nM.

Regarding `Cc1cc(C(=O)N2CCC(COc3ccc4cc3CCc3cncc(c3)Nc3ncc(Cl)c(n3)N4)C2)no1` (centres unmarked) [Example C58, 6-Chloro-12-({1-[(5-methylisoxazol-3-yl)carbonyl]pyrrolidin-3-yl}methoxy)-2,4,8,18,22-pentaazatetracyclo[14.3.1.1(3,7).1(9,13)]docosa-1(20),3(22),4,6,9(21),10,12,16,18-nonaene bis(trifluoroacetate)], the IC50 is > 400 nM in test [1], 217 nM in test [2], > 400 nM against TYK2 and > 400 nM in test [3].

As for `Cc1cc(C(=O)N2CCC(CC(=O)Nc3ccc4cc3CCc3cncc(c3)Nc3ncc(F)c(n3)N4)CC2)no1` [Example C49, N-[6-Fluoro-2,4,8,18,22-pentaazatetracyclo[14.3.1.1(3,7).1(9,13)]docosa-1(20),3(22),4,6,9(21),10,12,16,18-nonaen-12-yl]-2-{1-[(5-methylisoxazol-3-yl)carbonyl]piperidin-4-yl}acetamide trifluoroacetate], the IC50 is > 400 nM in test [1], 50 nM in test [2], 326 nM against TYK2 and > 400 nM in test [3].

Regarding `O=C(OCc1ccccc1)N1CCC(CCNc2ccc3cc2CCc2cncc(c2)Nc2ncc(Cl)c(n2)N3)CC1` [Example D215, Benzyl 4-(2-{[6-chloro-2,4,8,18,22-pentaazatetracyclo[14.3.1.1(3,7).1(9,13)]docosa-1(20),3(22),4,6,9(21),10,12,16,18-nonaen-12-yl]amino}ethyl)piperidine-1-carboxylate], the IC50 in test [1] (Table D1) is > 400 nM; in test [2] (Table D1) it was 13 nM; against TYK2 (Table D1) it was 276 nM; in test [3] (Table D1), 44 nM.

As to `C[N+]1(C)CCN(c2ccc3cc2CCc2cccc(c2)Nc2ncc(Cl)c(n2)N3)CC1` [Example D86, 4-[6-Chloro-2,4,8,22-tetraazatetracyclo[14.3.1.1(3,7).1(9,13)]docosa-1(20),3(22),4,6,9(21),10,12,16,18-nonaen-12-yl]-1,1-dimethylpiperazin-1-ium bis(trifluoroacetate)], the IC50 in test [1] (Table D1) came out at 169 nM; in test [2] (Table D1), 295 nM; against TYK2 (Table D1), 268 nM; in test [3] (Table D1), 87 nM.

In the case of `O=C(Cc1ccco1)Nc1ccc2cc1CCc1cccc(c1)Nc1ncc(Cl)c(n1)N2` [Example C36, N-[6-Chloro-2,4,8,22-tetraazatetracyclo[14.3.1.1(3,7).1(9,13)]docosa-1(20),3(22),4,6,9(21),10,12,16,18-nonaen-12-yl]-2-(2-furyl)acetamide trifluoroacetate], the IC50 in test [1] worked out at 663 nM; in test [2], 33 nM; at TYK2, 103 nM; in test [3] it was 42 nM.

`O=C(Cc1ccsc1)Nc1ccc2cc1CCc1cccc(c1)Nc1ncc(Cl)c(n1)N2` [Example C32, N-[6-Chloro-2,4,8,22-tetraazatetracyclo[14.3.1.1(3,7).1(9,13)]docosa-1(20),3(22),4,6,9(21),10,12,16,18-nonaen-12-yl]-2-(3-thienyl)acetamide trifluoroacetate]: the IC50 is 658 nM in test [1], 34 nM in test [2], 44 nM on TYK2 and 20 nM in test [3].

Take `O=C(C[C@@H]1CCCN(C(=O)c2ccccc2)C1)Nc1ccc2cc1CCc1cncc(c1)Nc1ncc(Cl)c(n1)N2` [Example D206, 2-[(3S)-1-Benzoylpiperidin-3-yl]-N-[6-chloro-2,4,8,18,22-pentaazatetracyclo[14.3.1.1(3,7).1(9,13)]docosa-1(20),3(22),4,6,9(21),10,12,16,18-nonaen-12-yl]acetamide bis(trifluoroacetate)]: the IC50 amounted to 147 nM in test [1] (Table D1), 9.2 nM in test [2] (Table D1), 13 nM on TYK2 (Table D1) and 14 nM in test [3] (Table D1).

Take `N#Cc1ccc(N2CCN(C(=O)COc3ccc4cc3CCc3cncc(c3)Nc3ncc(Cl)c(n3)N4)CC2)nc1` [Example D239, 6-[4-({[6-Chloro-2,4,8,18,22-pentaazatetracyclo[14.3.1.1(3,7).1(9,13)]docosa-1(20),3(22),4,6,9(21),10,12,16,18-nonaen-12-yl]oxy}acetyl)piperazin-1-yl]nicotinonitrile tris(trifluoroacetate)]: the IC50 in test [1] (Table D1) was > 400 nM; in test [2] (Table D1) it was 101 nM; at TYK2 (Table D1), > 400 nM; in test [3] (Table D1), 208 nM.

On to `O=C(CC1CN(c2nc3ccccc3s2)C1)Nc1ccc2cc1CCc1cncc(c1)Nc1ncc(Cl)c(n1)N2` [Example D138, 2-[1-(1,3-Benzothiazol-2-yl)azetidin-3-yl]-N-[6-chloro-2,4,8,18,22-pentaazatetracyclo[14.3.1.1(3,7).1(9,13)]docosa-1(20),3(22),4,6,9(21),10,12,16,18-nonaen-12-yl]acetamide tris(trifluoroacetate)], for which the IC50 in test [1] (Table D1) was > 1000 nM; in test [2] (Table D1) it was 12 nM; on TYK2 (Table D1), 500 nM; in test [3] (Table D1), 96 nM.

The values above are taken from patent US8871753B2, “Macrocyclic compounds and their use as kinase inhibitors” (Incyte Corporation, priority 2008, dated 2014).
